Assay results reported in patent publication US7763619B2, “Compounds with 5-HT1A activity useful for treating disorders of the outer retina” (Alcon, Inc., priority 2000, dated 2010).
Where a name gives a salt, the structure may show the parent alone.

What was measured:
Format in all cases: in vivo
[1] = test system: photo-oxidative induced retinopathy; test: Rat photo-oxidative induced retinopathy model: retinal morphology
Protocol: (§1) Neuroprotective Effects in the Rat Photo-Oxidative Induced Retinopathy Model
(§2) Induction of Photochemical Lesion. Photochemical lesions were induced in dark adapted rats (24 hour) by exposure to (220 fc) blue light (half-amplitude bandpass=435-475 nm) for 6 hours. Animals were allowed to recover for 5 days in darkness prior to electrodiagnostic evaluation of retinal function. Rats were single housed in clear polycarbonate cages during this light exposure.
Assessment of Retinal Morphology. Ocular tissues were obtained from control and drug or vehicle dosed rats and fixed by immersion into a mixture of 2% paraformaldehyde and 2% glutaraldehyde. Fixed eyeballs were dehydrated in an ascending ethanol series, embedded in JB-4 plastic resin, and 1 to 1.5-micron thick sections were analyzed using a quantitative computer image analysis system attached to the microscope. Retinal layer thickness (retinal pigment epithelium, RPE; outer nuclear layer thickness, ONL; inner nuclear layer thickness, INL; and length of photoreceptor inner and outer segments, IS+OS) was measured.
(§3) Subjects and Dosing. Male Sprague Dawley rats were randomly assigned to drug and vehicle experimental groups. Control rats were housed in their home cage under normal cyclic light exposure. All rats were dosed 48, 24 and 0 hours prior to a 6-hour blue-light exposure. Dosing was as follows:
(§4) Five rats were used as controls. Retinal protection was assessed by analyzing the ERG response and measuring changes in retinal morphology.
2.) Buspirone: For DNA quantitation, six rats per treatment group were dosed IP with vehicle or buspirone (0.5 and 1 mg/kg) prior to light exposure. Retinas from seven normal rats were used as controls. To evaluate changes in retinal morphology, rats were dosed (IP) with either vehicle (N=8) or buspirone (1.0 mg/kg [N=9]). Six rats were used as controls. Retinal protection was assessed by quantitating changes in retinal DNA and measuring changes in retinal morphology.

[2] = test system: photo-oxidative induced retinopathy; test: Rat photo-oxidative induced retinopathy model: electroretinogram (ERG)
[3] = test system: photo-oxidative induced retinopathy; test: as above; remark: listed apart in the source
Protocol: as §1
The retinal protective effect of these 5-HT1A agonists were evaluated in our photo-oxidative induced retinopathy paradigm.
as §2
Electrodiagnostic Evaluation. The electroretinogram (ERG) was recorded from anesthetized rats after a 24-hour dark-adaptation period. Rats were anesthetized by IP injection with Ketamine-HCl (75 mg/Kg) and Xylazine (6 mg/Kg). Flash ERGs recorded from a platinum-iridium wire loop electrode positioned on the cornea were elicited by viewing a ganzfeld. Electrical responses to a series of light flashes increasing in intensity were digitized to analyze temporal characteristics of the waveform and response voltage-log intensity (VlogI) relationship. Changes in the ERG a-wave are associated with photoreceptor and retinal pigment epithelium damage while damage to the inner retina is reflected in changes in the ERG b-wave.
as §3, §4
3.) SR-57746A: Rats were dosed (IP) with vehicle (N=15) or SR-57746A (0.5 mg/kg [N=5] or 1 mg/kg [N=15]). Eleven rats were used as controls. The ERG was analyzed after a 5-day recovery period to assess retinal protection.

[4] = test system: photo-oxidative induced retinopathy; test: Rat photo-oxidative induced retinopathy model: retinal DNA quantitation
Protocol: as §1, §2
Assessment of DNA Changes. Albino rats were euthanized by CO2 inhalation and individual retinas were frozen in separate tubes. Each retina had been sonicated in 0.8 ml (2.0 M NaCl, 50 mM NaPO4, pH 7.4, 2 mM EDTA) to yield a uniform homogenate, and stored frozen. Aliquots (0.1 ml) of each sample were diluted 10-fold with 2.0 M NaCl, 50 mM NaPO4. pH 7.4, 2 mM EDTA containing 1.1 μg/ml bisbenzimidazole (Hoechst 33258). A standard curve was constructed using calf thymus DNA from 0 to 25 μg/ml in the same buffer. Triplicate 0.2 ml aliquots of each retina sample and standard were pipetted into a 96 well plate for fluorescence measurements in the Cytofluor II. […]
2.) Buspirone: For DNA quantitation, six rats per treatment group were dosed IP with vehicle or buspirone (0.5 and 1 mg/kg) prior to light exposure. […] Retinal protection was assessed by quantitating changes in retinal DNA and measuring changes in retinal morphology.

[5] = test system: light-induced functional or morphological changes; test: Light damage paradigms (comparison compound classes)
[6] = 0.5 mg/kg SC 48, 24 and 0 h before 6-h blue light, 5-day recovery
[7] = 1.0 mg/kg SC 48, 24 and 0 h before 6-h blue light, 5-day recovery

## CCCN(CCC)C1CCc2cccc(O)c2C1 (stereo not shown) [8-OH-DPAT, 8-hydroxy-2-(di-n-propylamino)tetralin]
[1]; 0.5 mg/kg SC, 3-week recovery
  Lesions versus vehicle dosed rats: not significantly different than lesions measured in vehicle dosed rats
  ONL thickness reduction: 53%
  Photoreceptor segment length reduction: 60%
  RPE thickness reduction: 34%
[1]; 1.0 mg/kg SC, 3-week recovery
  ONL thickness compared to vehicle dosed rats: 2.4 fold
  Photic lesions versus vehicle dosed rats: significantly different from vehicle dosed rats
  Photoreceptor segment length compared to vehicle dosed rats: 2.9 times
  RPE thickness compared to vehicle dosed rats: 1.9 times
[2]; [6]
  Maximum a- and b-wave response amplitudes versus vehicle dosed rats: not different than vehicle dosed rats
  Maximum a- and b-wave response amplitudes, % of control amplitudes: approximately 27%
[2]; 0.5 mg/kg SC, as restated with the morphometry
  ERG reduction: approximately 63%
[2]; [7]
  Maximum a- and b-wave response amplitudes versus vehicle dosed rats: significantly higher than responses measured in vehicle dosed rats
  Maximum a-wave response amplitude, % of normal: approximately 53%
  Maximum b-wave response amplitude, % of normal: ~61%
[2]; 1.0 mg/kg SC, as restated with the morphometry
  ERG response amplitudes, % of normal: greater than 50%

## FC(F)(F)c1cccc(C2=CCN(CCc3ccc4ccccc4c3)CC2)c1 [SR-57746A, xaliproden hydrochloride]
[3]; 0.5 mg/kg IP, 5-day recovery
  Maximum a- and b-wave responses, % of controls: 82%
[3]; 1 mg/kg IP, 5-day recovery
  Maximum a- and b-wave responses, % of normal: 70%
[3]; 0.5 and 1.0 mg/kg IP, light-exposed rats
  Protection of retinal function: Significant protection of retinal function

## O=C1CC2(CCCC2)CC(=O)N1CCCCN1CCN(c2ncccn2)CC1 [buspirone]
[1]; 1 mg/kg IP, 4-week recovery
  ONL thickness: 28.3 μ
  ONL thickness versus normal rats: no significant difference in ONL thickness
[4]; 0.1 mg/kg IP
  Retinal DNA levels versus vehicle: No significant differences
[4]; 1 mg/kg IP
  Retinal DNA levels versus vehicle and controls: significantly higher than measured in vehicle dosed rats, but not significantly different than controls

## Fc1ccc(C(c2ccc(F)cc2)N2CCN(C/C=C/c3ccccc3)CC2)cc1 [flunarizine]
[5]
  Effect in preventing light-induced functional or morphological changes: moderately effective

## COCCOC(=O)C1=C(C)NC(C)=C(C(=O)OC(C)C)C1c1cccc([N+](=O)[O-])c1 (stereo not shown) [nimodipine]
[5]
  Effect in preventing light-induced functional or morphological changes: no effect

## Cc1c(C)c2c(c(C)c1O)CC[C@@](C)(CCC[C@H](C)CCC[C@H](C)CCCC(C)C)O2 [α-tocopherol]
[5]
  Effect in preventing light-induced functional or morphological changes: ineffective
